# Structures can show the parent of a compound that is named as a salt. Where two headings read alike, the source gives them in different places.
# Legend:
# [1] = target: nAChR formed by the α7 subunit isoform (Rattus norvegicus, UniProt Q05941); assay: In vitro inhibition of 3H-α-bungarotoxine binding rat brain (Assay III)
# [2] = target: T1, neuronal nicotinic receptors (3H-epibatidine binding sites; high affinity site α4β2 subtype) (Rattus norvegicus, UniProt P09483+P12390); assay: biochemical
# T1 sequence (P09483 31-630): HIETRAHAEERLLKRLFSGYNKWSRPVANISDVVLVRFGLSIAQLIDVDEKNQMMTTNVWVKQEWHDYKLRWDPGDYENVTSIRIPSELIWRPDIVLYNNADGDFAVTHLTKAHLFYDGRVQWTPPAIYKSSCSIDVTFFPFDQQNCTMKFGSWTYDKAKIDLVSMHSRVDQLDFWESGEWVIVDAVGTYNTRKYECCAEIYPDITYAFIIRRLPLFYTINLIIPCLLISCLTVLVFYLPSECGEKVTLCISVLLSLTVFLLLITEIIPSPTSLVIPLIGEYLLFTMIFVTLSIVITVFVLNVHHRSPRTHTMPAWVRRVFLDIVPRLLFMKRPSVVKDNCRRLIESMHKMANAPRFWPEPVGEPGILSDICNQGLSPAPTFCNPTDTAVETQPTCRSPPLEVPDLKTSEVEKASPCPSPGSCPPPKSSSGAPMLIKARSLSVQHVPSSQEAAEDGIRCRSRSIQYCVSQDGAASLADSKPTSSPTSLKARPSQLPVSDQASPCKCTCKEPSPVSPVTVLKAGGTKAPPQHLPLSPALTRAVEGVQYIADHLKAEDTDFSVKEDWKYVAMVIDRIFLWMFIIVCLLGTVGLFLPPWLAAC
# T1 sequence (P12390 25-500): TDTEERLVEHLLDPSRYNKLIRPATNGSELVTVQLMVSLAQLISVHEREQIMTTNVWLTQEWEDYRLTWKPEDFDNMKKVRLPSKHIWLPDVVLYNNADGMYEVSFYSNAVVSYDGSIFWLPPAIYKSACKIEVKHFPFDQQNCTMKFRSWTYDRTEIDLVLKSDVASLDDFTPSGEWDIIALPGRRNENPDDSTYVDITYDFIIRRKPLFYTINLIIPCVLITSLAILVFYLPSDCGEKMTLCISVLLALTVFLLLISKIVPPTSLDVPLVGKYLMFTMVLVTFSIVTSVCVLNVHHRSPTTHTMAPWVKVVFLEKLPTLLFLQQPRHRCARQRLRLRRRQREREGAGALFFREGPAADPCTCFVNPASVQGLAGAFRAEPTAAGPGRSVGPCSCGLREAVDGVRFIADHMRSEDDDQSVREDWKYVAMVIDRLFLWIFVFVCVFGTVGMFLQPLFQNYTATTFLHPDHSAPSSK
# [3] = target: T1, neuronal nicotinic receptors (3H-epibatidine binding sites; high affinity site α4β2 subtype)
# [4] = 3H-α-bungarotoxine 2 nM, cerebral cortices from male Wistar rats, 2 h at 37° C., read-out: Assay III IC50
# nAChR formed by the α7 subunit isoform, sequence (Q05941 23-502): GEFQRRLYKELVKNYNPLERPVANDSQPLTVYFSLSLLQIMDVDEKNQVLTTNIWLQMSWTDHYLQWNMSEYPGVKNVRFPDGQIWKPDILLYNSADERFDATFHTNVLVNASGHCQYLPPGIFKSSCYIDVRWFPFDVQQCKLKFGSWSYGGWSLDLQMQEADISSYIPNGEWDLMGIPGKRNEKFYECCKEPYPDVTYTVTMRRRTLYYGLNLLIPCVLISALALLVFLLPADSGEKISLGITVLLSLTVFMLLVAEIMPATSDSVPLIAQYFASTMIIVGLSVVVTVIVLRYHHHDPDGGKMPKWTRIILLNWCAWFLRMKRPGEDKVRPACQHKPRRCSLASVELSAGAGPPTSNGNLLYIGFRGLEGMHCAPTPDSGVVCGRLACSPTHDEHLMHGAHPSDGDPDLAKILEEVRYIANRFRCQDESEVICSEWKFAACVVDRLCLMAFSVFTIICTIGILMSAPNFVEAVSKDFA
SMILES,"IC50 [1, 4]",IC50 [2],melting point,also measured
Clc1ncc(N2CCCNCC2)cc1Br [1-(5-Bromo-6-chloro-3-pyridyl)-homopiperazine],< 3000 nM,1 nM,–,–
Clc1cncc(N2CCCNCCC2)c1 (as salt: fumaric acid salt),–,–,186 to 187 °C,–
C(#Cc1cncc(N2CCCNCC2)c1)c1ccccc1 (as salt: fumaric acid salt) [1-(5-Phenylacetylenyl-3-pyridyl)-homopiperazine],–,–,155.2 to 157.8 °C,–
C(#Cc1cncc(N2CCCNCC2)c1)c1ccccc1 [1-(5-Phenylacetylenyl-3-pyridyl)-homopiperazine],11000 nM,5 nM,–,–
"Brc1cc(N2CCCNCC2)cnc1Br (as salt: fumaric acid salt) [1-(5,6-Dibromo-3-pyridyl)-homopiperazine]",–,–,192.1 to 193.2 °C,–
C=COc1cncc(N2CCCN(c3cncc(OC=C)c3)CC2)c1 (as salt: fumaric acid salt),–,–,157 to 158.5 °C,–
CCCC=CCOc1cncc(N2CCCNCC2)c1 [1-[5-(Hex-2-en-ox)-3-pyridyl]-homopiperazine],47000 nM,8 nM,–,–
CC(C)=COc1cncc(N2CCCNCC2)c1 [1-[5-(2-Methyl-1-prop-1-en-oxy)-3-pridyl]-homopiperazine],85000 nM,–,–,IC50 [3]: 20 nM
"Brc1cc(N2CCCNCC2)cnc1Br [1-(5,6-Dibromo-3-pyridyl)-homopiperazine]",3000 nM,1 nM,–,–
Ic1cncc(N2CCCNCC2)c1 (as salt: fumaric acid salt),–,–,178 to 180 °C,–
CCOc1cncc(N2CCCN(c3cncc(OCC)c3)CC2)c1 (as salt: fumaric acid salt),–,–,155 to 156 °C,–
Brc1ccc(N2CCCNCC2)nn1 [1-(6-Bromo-3-pyridazinyl)-homopiperazine],1500 nM,70 nM,–,–
"Clc1cc(N2CCCNCC2)cnc1Cl (as salt: fumaric acid salt) [1-(5,6-Dichloro-3-pyridyl)-homopiperazine]",–,–,172.2 to 173.4 °C,–
Brc1ccc(N2CCCNCC2)nn1 (as salt: fumaric acid salt) [1-(6-Bromo-3-pyridazinyl)-homopiperazine],–,–,169 to 171 °C,–
c1ncc(N2CCCNCC2)cc1N1CCCC1 [1-[5-(N-pyrrolidinyl)-3-pyridyl]-homopiperazine],5000 nM,40 nM,–,–
CCCC=CCOc1cncc(N2CCCNCC2)c1 (as salt: fumaric acid salt) [1-[5-(Hex-2-en-ox)-3-pyridyl]-homopiperazine],–,–,126.8 to 130.2 °C,–
CCC(CC)COc1cncc(N2CCCNCC2)c1 [1-[5-(2-Ethyl-1-butoxy)-3-pyridyl]-homopiperazine],> 30000 nM,13 nM,–,–
Clc1ncc(N2CCCNCC2)cc1Br (as salt: fumaric acid salt) [1-(5-Bromo-6-chloro-3-pyridyl)-homopiperazine],–,–,188.2 to 189.2 °C,–
c1ncc(N2CCCNCC2)cc1OCC1CCC1 (as salt: fumaric acid salt) [1-[5-(Cyclobutylmethoxy)-3-pyridyl]-homopiperazine],–,–,158.9 to 159.9 °C,–

SMILES,"IC50 [1, 4]",IC50 [2],melting point,also measured
c1ncc(N2CCCNCC2)cc1OCC1CCC1 [1-[5-(Cyclobutylmethoxy)-3-pyridyl]-homopiperazine],> 30000 nM,4 nM,–,–
CCC(CC)COc1cncc(N2CCCNCC2)c1 (as salt: fumaric acid salt) [1-[5-(2-Ethyl-1-butoxy)-3-pyridyl]-homopiperazine],–,–,113.7 to 115.9 °C,–
C=CC(C)Oc1cncc(N2CCCNCC2)c1 (stereo not shown) [1-[5-(1-Methyl-1-prop-2-en-oxy)-3-pyridyl]-homopiperazine],11000 nM,52 nM,–,–
CCCCN(C)c1cncc(N2CCCNCC2)c1 (as salt: fumaric acid salt) [1-[5-(N-Butyl-N-methylamino)-3-pyridyl]homopiperazine],–,–,140.5 to 141.8 °C,–
C=COc1cc(N2CCCNCC2)cnc1Br (as salt: fumaric acid salt),–,–,128.6 °C,–
C=CC(C)Oc1cncc(N2CCCNCC2)c1 (stereo not shown) (as salt: fumaric acid salt) [1-[5-(1-Methyl-1-prop-2-en-oxy)-3-pyridyl]-homopiperazine],–,–,129.5 to 133.6 °C,–
"CC1OC1Oc1cncc(N2CCCNCC2)c1 (stereo not shown) [1-[5-(Propyl-1,2-epoxy-1-oxy)-3-pyridyl]-homopiperazine]",58000 nM,40 nM,135.2 to 139 °C,–
Clc1cc(N2CCCNCC2)cnc1Br (as salt: fumaric acid salt) [1-(6-Bromo-5-chloro-3-pyridyl)-homopiperazine],–,–,213 to 216 °C,–
CCOc1cncc(N2CCCN(CC)CC2)c1 [1-(5-Ethoxy-3-pyridyl)-4-ethyl-homopiperazine],–,–,–,IC50 [1]: > 30000 nM
COc1cc(N2CCCNCC2)cnc1Br (as salt: fumaric acid salt),–,–,210 to 212 °C,–
C=COc1cc(N2CCCNCC2)cnc1Cl (as salt: fumaric acid salt),–,–,183 to 185 °C,–
CCCCCOc1cncc(N2CCN(C)CC2)c1 (as salt: fumaric acid salt),–,–,113.6 to 115.1 °C,–
Clc1cc(N2CCCNCC2)cnc1Br [1-(6-Bromo-5-chloro-3-pyridyl)-homopiperazine],< 3000 nM,2 nM,–,–
Brc1cncc(N2CCCNCCC2)c1 (as salt: fumaric acid salt),–,–,151 to 153 °C,–
"CCCCOc1cncc(N2CCCNCCC2)c1 [1-[5-(Butoxy)-3-pyridyl]-1,5-diazacyclooctane]",–,3 nM,–,–
C=CCN1CCCN(c2cncc(OCC)c2)CC1 [1-(5-Ethoxy-3-pyridyl)-4-(prop-2-en-1-yl-)-homopiperazine],–,–,–,IC50 [1]: > 30000 nM
c1ncc(N2CCCNCC2)cc1N1CCC1 (as salt: fumaric acid salt),–,–,143.5 to 146.9 °C,–
c1ncc(N2CCCNCC2)cc1N1CCCC1 (as salt: fumaric acid salt) [1-[5-(N-pyrrolidinyl)-3-pyridyl]-homopiperazine],–,–,141.5 to 143 °C,–
"Clc1cc(N2CCCNCC2)cnc1Cl [1-(5,6-Dichloro-3-pyridyl)-homopiperazine]",< 3000 nM,2 nM,–,–
